Laboratory results from ChEMBL document CHEMBL4507315 (2021).
Activity calls are given as the source filed them. The rule behind the calls is not given here.

Experiments:
[1] = biological target: Platelet-derived growth factor receptor alpha (Homo sapiens) (UniProt P16234); conditions: Compound concentration 100.0 nM
[2] = biological target: Mitogen-activated protein kinase 1 (Homo sapiens) (UniProt P28482); conditions: Compound concentration 100.0 nM
[3] = biological target: Serine/threonine-protein kinase MAK (Homo sapiens) (UniProt P20794); conditions: Compound concentration 100.0 nM
[4] = biological target: Serine/threonine-protein kinase PknB (Mycobacterium tuberculosis) (UniProt P9WI81); conditions: Compound concentration 100.0 nM
[5] = biological target: Alpha-1D adrenergic receptor (Homo sapiens) (UniProt P25100); conditions: Compound concentration 10.0 uM
[6] = biological target: Homeodomain-interacting protein kinase 2 (Homo sapiens) (UniProt Q9H2X6); conditions: Compound concentration 100.0 nM
[7] = biological target: T1, Kappa-type opioid receptor (Homo sapiens, UniProt P41145); conditions: Compound concentration 10.0 uM
[8] = biological target: Serine/threonine-protein kinase Chk1 (Homo sapiens) (UniProt O14757); conditions: Compound concentration 100.0 nM
[9] = biological target: Ephrin type-A receptor 1 (Homo sapiens) (UniProt P21709); conditions: Compound concentration 100.0 nM
[10] = biological target: RAC-gamma serine/threonine-protein kinase (Homo sapiens) (UniProt Q9Y243); conditions: Compound concentration 100.0 nM
[11] = biological target: Heat shock protein beta-1 (Homo sapiens, UniProt P04792); experiment: Inhibition of HSP27 (Ser82) (Western blot)
[12] = biological target: Cyclin-dependent kinase 3 (Homo sapiens) (UniProt Q00526); conditions: Compound concentration 100.0 nM
[13] = biological target: Serine/threonine-protein kinase SIK2 (Homo sapiens) (UniProt Q9H0K1); conditions: Compound concentration 100.0 nM
[14] = biological target: Serine/threonine-protein kinase PRP4 homolog (Homo sapiens) (UniProt Q13523); conditions: Compound concentration 100.0 nM
Rattus norvegicus = species on record: Rattus norvegicus; conditions: Compound concentration 10.0 uM
[15] = biological target: Serine/threonine-protein kinase MARK2 (Homo sapiens) (UniProt Q7KZI7); conditions: Compound concentration 100.0 nM
[16] = biological target: Dual specificity testis-specific protein kinase 1 (Homo sapiens) (UniProt Q15569); conditions: Compound concentration 100.0 nM
[17] = biological target: Microtubule-associated serine/threonine-protein kinase 1 (Homo sapiens) (UniProt Q9Y2H9); conditions: Compound concentration 100.0 nM
[18] = biological target: Muscarinic acetylcholine receptor M5 (Homo sapiens) (UniProt P08912); conditions: Compound concentration 10.0 uM
[19] = biological target: D(4) dopamine receptor (Homo sapiens) (UniProt P21917); conditions: Compound concentration 10.0 uM
[20] = biological target: T1, Kappa-type opioid receptor; experiment: GPCRScan assay: inhibition of KOR; set-up: radioligand conc. used [nm] 0.6 – 1.2, parental cells stable HEK
Histamine H1 receptor = Histamine H1 receptor (Homo sapiens, UniProt P35367); experiment: GPCRScan assay: inhibition of H1; set-up: radioligand conc. used [nm] 0.6 – 2.0, parental cells stable HEK
[21] = biological target: Mitogen-activated protein kinase 14 (Homo sapiens) (UniProt Q16539); conditions: Compound concentration 100.0 nM
[22] = biological target: Histamine H2 receptor (Homo sapiens) (UniProt P25021); conditions: Compound concentration 10.0 uM
[23] = biological target: Sigma intracellular receptor 2 (Homo sapiens, UniProt Q5BJF2); experiment: GPCRScan assay: inhibition of Sigma 2; set-up: radioligand conc. used [nm] 5.0, parental cells HEKT

T1 sequence (P41145 whole entry): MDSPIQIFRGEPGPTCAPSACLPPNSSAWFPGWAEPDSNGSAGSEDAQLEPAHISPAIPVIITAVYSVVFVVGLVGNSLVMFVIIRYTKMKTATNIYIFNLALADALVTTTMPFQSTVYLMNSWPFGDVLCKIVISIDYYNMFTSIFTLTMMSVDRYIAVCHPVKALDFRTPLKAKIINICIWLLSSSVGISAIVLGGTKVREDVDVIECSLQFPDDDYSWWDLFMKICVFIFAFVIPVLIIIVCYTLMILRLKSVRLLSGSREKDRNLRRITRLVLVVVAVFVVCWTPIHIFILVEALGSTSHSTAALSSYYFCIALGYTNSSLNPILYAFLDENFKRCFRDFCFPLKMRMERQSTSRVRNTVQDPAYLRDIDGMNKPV
Ephrin type-A receptor 1 (Homo sapiens), sequence (P21709 whole entry): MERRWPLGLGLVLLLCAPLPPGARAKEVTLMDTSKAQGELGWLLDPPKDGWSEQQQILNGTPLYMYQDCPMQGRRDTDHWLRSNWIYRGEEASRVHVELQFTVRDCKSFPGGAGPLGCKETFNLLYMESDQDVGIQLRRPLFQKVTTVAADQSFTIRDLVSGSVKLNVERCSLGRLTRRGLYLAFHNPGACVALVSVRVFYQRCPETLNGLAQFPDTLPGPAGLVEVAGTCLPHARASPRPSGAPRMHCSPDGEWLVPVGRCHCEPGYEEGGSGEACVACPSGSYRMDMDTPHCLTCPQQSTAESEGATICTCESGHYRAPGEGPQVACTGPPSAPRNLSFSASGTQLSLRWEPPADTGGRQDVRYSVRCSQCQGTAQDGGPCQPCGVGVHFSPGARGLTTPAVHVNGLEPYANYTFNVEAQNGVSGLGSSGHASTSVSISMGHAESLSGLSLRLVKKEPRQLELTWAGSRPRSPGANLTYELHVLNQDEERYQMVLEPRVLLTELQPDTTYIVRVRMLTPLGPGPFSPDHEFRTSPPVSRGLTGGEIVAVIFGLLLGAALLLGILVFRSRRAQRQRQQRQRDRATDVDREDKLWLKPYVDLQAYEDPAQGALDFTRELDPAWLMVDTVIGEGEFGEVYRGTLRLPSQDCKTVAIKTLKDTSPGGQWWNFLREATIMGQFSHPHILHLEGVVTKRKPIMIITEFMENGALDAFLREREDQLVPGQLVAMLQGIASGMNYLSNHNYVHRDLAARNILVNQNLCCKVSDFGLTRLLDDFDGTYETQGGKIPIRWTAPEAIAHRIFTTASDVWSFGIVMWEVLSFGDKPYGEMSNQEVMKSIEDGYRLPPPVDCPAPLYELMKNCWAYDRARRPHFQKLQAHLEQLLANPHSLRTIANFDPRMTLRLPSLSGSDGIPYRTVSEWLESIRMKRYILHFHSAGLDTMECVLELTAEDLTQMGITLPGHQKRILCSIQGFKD
Serine/threonine-protein kinase PRP4 homolog (Homo sapiens), sequence (Q13523 whole entry): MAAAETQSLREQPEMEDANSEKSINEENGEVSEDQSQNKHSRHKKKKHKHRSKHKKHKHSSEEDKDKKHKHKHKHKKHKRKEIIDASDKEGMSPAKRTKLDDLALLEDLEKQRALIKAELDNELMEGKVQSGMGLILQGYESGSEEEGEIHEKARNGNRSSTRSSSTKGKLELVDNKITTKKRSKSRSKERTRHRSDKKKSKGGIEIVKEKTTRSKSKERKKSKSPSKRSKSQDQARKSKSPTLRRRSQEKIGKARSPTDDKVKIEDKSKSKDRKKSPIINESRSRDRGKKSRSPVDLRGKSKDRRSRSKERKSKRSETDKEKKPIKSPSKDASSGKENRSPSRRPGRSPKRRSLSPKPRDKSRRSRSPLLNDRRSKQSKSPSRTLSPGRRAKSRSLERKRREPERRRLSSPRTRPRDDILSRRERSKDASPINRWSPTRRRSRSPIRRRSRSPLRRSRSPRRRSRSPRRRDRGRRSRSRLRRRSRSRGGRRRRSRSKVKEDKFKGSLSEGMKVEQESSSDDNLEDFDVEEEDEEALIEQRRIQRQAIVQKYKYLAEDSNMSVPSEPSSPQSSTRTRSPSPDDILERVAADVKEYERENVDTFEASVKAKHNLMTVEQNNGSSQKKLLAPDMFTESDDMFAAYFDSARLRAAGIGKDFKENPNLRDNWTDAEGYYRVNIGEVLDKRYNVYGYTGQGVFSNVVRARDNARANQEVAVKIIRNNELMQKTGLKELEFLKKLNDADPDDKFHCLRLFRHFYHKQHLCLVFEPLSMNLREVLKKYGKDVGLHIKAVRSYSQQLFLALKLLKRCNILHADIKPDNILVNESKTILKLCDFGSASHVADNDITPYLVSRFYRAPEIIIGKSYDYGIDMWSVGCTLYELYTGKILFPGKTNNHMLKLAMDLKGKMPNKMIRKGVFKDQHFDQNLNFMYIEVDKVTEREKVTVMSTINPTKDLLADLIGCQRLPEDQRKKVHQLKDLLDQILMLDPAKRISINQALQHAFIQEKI
Serine/threonine-protein kinase PknB (Mycobacterium tuberculosis), sequence (P9WI81 whole entry): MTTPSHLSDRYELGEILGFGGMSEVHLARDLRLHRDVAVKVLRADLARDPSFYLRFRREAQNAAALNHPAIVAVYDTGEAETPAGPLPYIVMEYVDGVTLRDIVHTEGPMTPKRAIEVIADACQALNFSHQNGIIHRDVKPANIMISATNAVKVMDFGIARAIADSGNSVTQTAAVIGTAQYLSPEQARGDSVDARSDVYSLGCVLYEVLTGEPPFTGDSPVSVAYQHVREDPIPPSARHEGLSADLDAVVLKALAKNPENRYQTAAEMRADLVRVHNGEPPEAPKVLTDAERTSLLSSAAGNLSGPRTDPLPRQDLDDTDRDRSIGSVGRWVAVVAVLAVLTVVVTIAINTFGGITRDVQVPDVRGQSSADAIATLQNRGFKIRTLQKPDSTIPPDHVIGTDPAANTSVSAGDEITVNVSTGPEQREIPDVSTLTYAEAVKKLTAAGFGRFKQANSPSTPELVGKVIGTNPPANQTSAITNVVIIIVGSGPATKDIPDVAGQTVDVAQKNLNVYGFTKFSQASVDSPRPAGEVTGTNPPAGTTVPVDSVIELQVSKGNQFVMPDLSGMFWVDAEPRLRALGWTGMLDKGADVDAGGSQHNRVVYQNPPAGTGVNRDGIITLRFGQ
Platelet-derived growth factor receptor alpha (Homo sapiens), sequence (P16234 whole entry): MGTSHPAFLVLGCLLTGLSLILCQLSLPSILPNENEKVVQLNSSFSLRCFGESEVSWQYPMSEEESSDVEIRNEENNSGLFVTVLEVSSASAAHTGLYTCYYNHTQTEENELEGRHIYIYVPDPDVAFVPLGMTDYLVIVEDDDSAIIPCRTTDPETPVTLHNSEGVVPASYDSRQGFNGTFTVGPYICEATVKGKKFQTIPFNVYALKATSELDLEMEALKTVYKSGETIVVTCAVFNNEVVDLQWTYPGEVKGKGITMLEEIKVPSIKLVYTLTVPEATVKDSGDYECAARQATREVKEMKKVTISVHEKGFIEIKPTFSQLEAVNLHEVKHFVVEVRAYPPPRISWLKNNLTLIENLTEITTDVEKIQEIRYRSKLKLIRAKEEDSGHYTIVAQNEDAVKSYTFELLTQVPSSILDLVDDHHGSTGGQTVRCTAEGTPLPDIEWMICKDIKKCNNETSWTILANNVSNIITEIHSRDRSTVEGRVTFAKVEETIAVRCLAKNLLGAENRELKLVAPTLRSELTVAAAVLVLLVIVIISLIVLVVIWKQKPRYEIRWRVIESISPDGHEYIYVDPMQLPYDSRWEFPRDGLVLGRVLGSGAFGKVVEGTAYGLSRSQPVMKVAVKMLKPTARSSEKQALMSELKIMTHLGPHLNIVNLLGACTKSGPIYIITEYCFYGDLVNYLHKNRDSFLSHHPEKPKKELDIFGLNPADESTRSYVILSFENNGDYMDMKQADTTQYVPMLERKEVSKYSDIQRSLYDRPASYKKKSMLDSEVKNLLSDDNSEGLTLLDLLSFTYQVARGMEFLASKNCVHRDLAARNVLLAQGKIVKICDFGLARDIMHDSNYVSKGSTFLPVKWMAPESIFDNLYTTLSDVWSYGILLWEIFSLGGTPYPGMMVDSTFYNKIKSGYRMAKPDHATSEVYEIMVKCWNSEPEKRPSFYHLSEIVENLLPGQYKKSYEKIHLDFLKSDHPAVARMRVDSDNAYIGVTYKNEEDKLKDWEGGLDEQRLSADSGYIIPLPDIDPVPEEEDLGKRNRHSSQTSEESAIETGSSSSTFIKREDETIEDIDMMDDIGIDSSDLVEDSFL
Serine/threonine-protein kinase MAK (Homo sapiens), sequence (P20794 whole entry): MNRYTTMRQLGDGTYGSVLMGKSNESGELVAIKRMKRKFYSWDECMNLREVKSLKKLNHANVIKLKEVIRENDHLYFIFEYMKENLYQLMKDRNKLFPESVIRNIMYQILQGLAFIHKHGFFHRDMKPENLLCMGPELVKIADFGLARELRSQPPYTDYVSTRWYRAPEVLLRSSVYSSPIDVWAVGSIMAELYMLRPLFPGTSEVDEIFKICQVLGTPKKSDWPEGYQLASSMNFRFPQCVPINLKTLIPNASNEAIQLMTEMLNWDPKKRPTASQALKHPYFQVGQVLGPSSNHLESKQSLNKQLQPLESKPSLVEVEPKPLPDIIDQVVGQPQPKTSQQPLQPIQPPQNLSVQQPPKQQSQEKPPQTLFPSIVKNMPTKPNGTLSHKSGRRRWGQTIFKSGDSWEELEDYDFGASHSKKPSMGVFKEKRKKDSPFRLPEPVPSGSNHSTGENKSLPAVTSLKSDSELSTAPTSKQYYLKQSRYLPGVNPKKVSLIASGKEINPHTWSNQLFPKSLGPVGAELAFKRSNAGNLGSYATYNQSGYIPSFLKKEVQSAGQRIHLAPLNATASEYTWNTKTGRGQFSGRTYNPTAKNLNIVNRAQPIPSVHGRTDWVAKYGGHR
Cyclin-dependent kinase 3 (Homo sapiens), sequence (Q00526 whole entry, looked up): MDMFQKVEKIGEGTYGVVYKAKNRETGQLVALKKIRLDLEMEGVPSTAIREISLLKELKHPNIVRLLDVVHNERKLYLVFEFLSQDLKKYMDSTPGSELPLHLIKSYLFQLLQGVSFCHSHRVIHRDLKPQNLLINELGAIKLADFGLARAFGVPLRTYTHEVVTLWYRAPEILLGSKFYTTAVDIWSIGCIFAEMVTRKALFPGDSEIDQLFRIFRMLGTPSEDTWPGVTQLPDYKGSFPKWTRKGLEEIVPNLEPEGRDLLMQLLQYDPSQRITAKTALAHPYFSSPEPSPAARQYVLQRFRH

Row | Structure (SMILES) | residual activity [1] | residual activity [2] | residual activity [3] | residual activity [4] | inhibition [5] | residual activity [6] | inhibition [7] | residual activity [8] | residual activity [9] | residual activity [10] | residual activity [12] | residual activity [13] | residual activity [14] | residual activity [15] | residual activity [16] | residual activity [17] | further results
1 | Nc1c(C(=O)NCc2ccc(C(=O)NCCCC3CCCCC3)cc2)cnn1-c1ccccc1 [SR-318] | 100% | 100% | 100% | 100% | 22% | 100% | 38.6% | 100% | 100% | 78% | 100% | 100% | 100% | 65% | 100% | 100% | IC50 [11]: < 1 µM (active); inhibition (Rattus norvegicus): 27.6%
2 | O=C(NCCCC1CCCCC1)c1ccc(CNC(=O)c2cnn(-c3ccccc3)c2C(F)(F)F)cc1 [SR-321] | 92% | 93% | 100% | 100% | 10.1% | 100% | 80.2% | 100% | 100% | 97% | 100% | 100% | 100% | 100% | 100% | 88% | inhibition [18]: -4.46%; inhibition [19]: 21.7%; Ki [20]: > 10 µM; pKi [20]: < 5; Ki (Histamine H1 receptor): > 10 µM; pKi (Histamine H1 receptor): < 5; residual activity [21]: 100%; inhibition [22]: -2.78%; Ki ([23]; read-out: Ki): 2890 nM; Ki ([23]; read-out: pKi (converted)): 2820 nM
